The text below walks through data of patent US20100159039A1, “ANTIVIRAL AGENTS CONTAINING A FERMENTATION PRODUCT OF GARLIC BY LACTIC ACID BACTERIA” (Liisna Inc., priority 2008, published 2010).

Converted amounts (≈) assume the structure as drawn. Read-outs that look alike come from different tables or passages of the source.

Data set [1] has as its system influenza virus Type H1N1 (A/Taiwan/1/86). Kind of data set: CPE inhibition assay in MDCK cells, influenza A/H1N1. In kind it is cell-based. Conditions: for EC50: 72 h, MDCK cells, 100 CCID50, three days, read-out: Antiviral activity (EC50) Taiwan A/H1N1.
In data set [2] the test system is influenza virus Type H3N2 (A/Seoul/11/88). Kind of data set: CPE inhibition assay in MDCK cells, influenza A/H3N2. In kind it is cell-based. Conditions: for EC50: 72 h, MDCK cells, 100 CCID50, three days, read-out: Antiviral activity (EC50) Seoul A/H3N2.
Data set [3] has as its system influenza virus Type B (B/Panama/45/90). Kind of data set: CPE inhibition assay in MDCK cells, influenza B. The conditions noted are these: for EC50: Influenza B virus, MDCK, 72 h, read-out: Antiviral activity (EC50) Panama B. In kind it is cell-based.
Data set [4] concerns MDCK (Madin-Darby canine kidney) cells.
A short description of data set [5]: in vitro. The conditions noted are these: dog.

In the case of `CC(O)C(=O)O` (centres unmarked) [Lactic acid, lactic acid], the “Selectivity index (SI, CC50/EC50) Taiwan A/H1N1” value in data set [1] (CC50/EC50) is reported as less than 1.00. For the same compound, the “Selectivity index (SI, CC50/EC50) Seoul A/H3N2” value in data set [2] (CC50/EC50) is reported as less than 1.00. The “Selectivity index (SI, CC50/EC50) Panama B” value in data set [3] was less than 1.00. Besides, the “Toxicity CC50 (50% cytotoxic concentration)” value in data set [4] turned out to be 0.014.
`NC12CC3CC(CC(C3)C1)C2` [Amantadine, amantadine]: the EC50 was greater than 100 µg/mL in data set [1], 0.49 µg/mL (≈ 3.24 µM) in data set [2] and greater than 100 µg/mL in data set [3]. For the same compound, the “Selectivity index (SI, CC50/EC50) Seoul A/H3N2” value in data set [2] is recorded as greater than 204.1. The CC50 in data set [5] was greater than 100 µg/mL.
For `NC(=O)c1ncn([C@@H]2O[C@H](CO)[C@@H](O)[C@H]2O)n1` [Ribavirin, ribavirin], in data set [1], the “Selectivity index (SI, CC50/EC50) Taiwan A/H1N1” value was greater than 15.3 and the EC50 amounted to 6.54 µg/mL (≈ 26.8 µM). In data set [2], the “Selectivity index (SI, CC50/EC50) Seoul A/H3N2” value was greater than 34.7 and the EC50 is 2.88 µg/mL (≈ 11.8 µM). Further, in data set [3], the “Selectivity index (SI, CC50/EC50) Panama B” value is on record as greater than 43.7 and the EC50 amounted to 2.29 µg/mL (≈ 9.38 µM). Further, the CC50 in data set [5] is greater than 100 µg/mL.
Consider `CCOC(=O)C1=C[C@@H](OC(CC)CC)[C@H](NC(C)=O)[C@@H](N)C1` [Oseltamivir, oseltamivir], for which the EC50 came to 16.4 µg/mL (≈ 52.3 µM) in data set [1], 0.49 µg/mL (≈ 1.57 µM) in data set [2] and 10.1 µg/mL (≈ 32.5 µM) in data set [3]. The “Selectivity index (SI, CC50/EC50) Taiwan A/H1N1” value in data set [1] (CC50/EC50) is recorded as greater than 6.1. The “Selectivity index (SI, CC50/EC50) Seoul A/H3N2” value in data set [2] (CC50/EC50) is given as greater than 202.4. Moreover, in data set [3], the “Selectivity index (SI, CC50/EC50) Panama B” value was greater than 9.9. The compound also came in with a CC50 in data set [5] greater than 100 µg/mL.
